{"source": "patent US20240000812A1", "about": "“PHARMACOLOGICAL AGENTS FOR TREATING CONDITIONS OF THE EYE” (PLEX PHARMACEUTICALS, INC., priority 2020, published 2024)", "key": {"[1]": {"target": "COMT", "settings": "known COMT inhibitors, cited from earlier work"}, "[2]": {"tested_on": "bovine lens extracts", "experiment": "UVC/H2O2-induced aggregation of bovine lens extracts", "format": "biochemical", "settings": "7 minutes exposure", "from_the_text": "FIG. 2 represents data relating to UVC/H2O2-induced aggregation of bovine lens extracts, as described in Example 4."}, "[3]": {"tested_on": "chicks with form deprivation myopia", "experiment": "Form deprivation myopia chick model, scleral proteoglycan synthesis (35SO4 incorporation into glycosaminoglycans)", "format": "in vivo", "settings": "high (2.25 mM) and low (0.75 mM) dose, 20 ul intravitreal daily for seven days; measured four hours after the final dose", "protocol": "Three compounds (quinpirole, CAP4719, and L-DOPA) were tested in chicks for their effects on scleral proteoglycan synthesis, as a measure of scleral growth, axial elongation and myopia. CAP4719 has the following structure: […]\nForm deprivation myopia is induced in the right eyes of 4-5 days old chicks by the application of translucent occluders. […] At the end of the treatment period, chicks are sacrificed, their sclera labelled in organ culture with 35SO4, and scleral proteoglycan synthesis measured by CPC-precipitation of newly synthesized glycosaminoglycans. Radioactivity is measured using scintillation counting, and the amount of radioactivity compared (as CPM) between right and left eyes of all groups of animals by paired t-tests and between different groups using ANOVA. […]\nThe right eyes were goggled (myopic) and injected with either the high dose, low dose, or vehicle of the CAP4719 compound. Proteoglycan synthesis was measured as the amount of 35SO4 (cpm) incorporated into glycosaminoglycans four hours after the final dose. […]"}, "[4]": {"tested_on": "experimental myopia in guinea pigs", "settings": "systemic administration; cited from earlier work"}, "[5]": {"tested_on": "experimental myopia in chickens", "settings": "intravitreal administration; cited from earlier work"}, "[6]": {"tested_on": "experimental myopia in rabbits", "settings": "intravitreal administration of exogenous dopamine; cited from earlier work"}}, "note": "Where a name gives a salt, the structure may show the parent alone."}
{"smiles": "O=C(CCN1CCN(c2cccc(C(F)(F)F)c2)CC1)c1cc(O)c(O)c([N+](=O)[O-])c1", "note": "[BIA 3-335, 1-(3,4-Dihydroxy-5-nitrophenyl)-3-{4-[3-(trifluoromethyl)phenyl]-1-piperazinyl}-1-propanone dihydrochloride]", "values": [{"measurement": "Ki", "setting": "[1]", "value": 6, "unit": "nM"}]}
{"smiles": "O=C(NCCCNC(=O)c1ccc(O)c(O)c1)c1ccc(O)c(O)c1", "note": "[Bifunctional inhibitor, N,N′-(propane-1,3-diyl)bis(3,4-dihydroxybenzamide)]", "values": [{"measurement": "IC50", "setting": "[1]; read-out: IC50 (concentration of the inhibitor that affords a 50% inhibition in the activity of the enzyme, COMT)", "value": 300, "unit": "nM"}]}
{"smiles": "Cc1ccc(C(=O)c2cc(O)c(O)c([N+](=O)[O-])c2)cc1", "note": "[CAP1160]", "values": [{"measurement": "Prevention of UVC/H2O2-induced aggregation of bovine lens extracts", "setting": "[2]", "value": "prevents UVC/H2O2-induced aggregation of bovine lens extracts"}]}
{"smiles": "Cc1ccc(C(=O)c2cc(OC(=O)CCCP(=O)([O-])[O-])c(O)c([N+](=O)[O-])c2)cc1.[Na+].[Na+]", "note": "[CAP4719]", "values": [{"measurement": "Block of the increase in proteoglycan synthesis in the goggled (myopic) right eye", "setting": "[3]", "value": "did not completely block the increase in proteoglycan synthesis"}, {"measurement": "Percentage increase in proteoglycan synthesis over the left (control) eye, compared with the vehicle", "setting": "[3]", "value": "appears to be lower"}]}
{"smiles": "N[C@@H](Cc1ccc(O)c(O)c1)C(=O)O", "note": "[L-Dopa]", "values": [{"measurement": "Development of experimental myopia", "setting": "[4]", "value": "inhibit the development of experimental myopia"}, {"measurement": "Development of experimental myopia", "setting": "[5]", "value": "inhibit the development of experimental myopia"}]}
{"smiles": "Cc1c(Cl)c(C)[n+]([O-])c(Cl)c1-c1noc(-c2cc(O)c(O)c([N+](=O)[O-])c2)n1", "note": "[Opicapone]", "values": [{"measurement": "Ki", "setting": "[1]", "value": 1, "unit": "nM"}]}
{"smiles": "NCCc1ccc(O)c(O)c1", "note": "[dopamine]", "values": [{"measurement": "Development of experimental myopia", "setting": "[6]", "value": "inhibit the development of experimental myopia"}]}
